Assay results reported in patent US11014911B2, “CDK2 inhibitors” (Pfizer Inc., priority 2019, dated 2021).

Tests used:
[1] = target: CDK2/Cyclin E1 full length (Homo sapiens (Human), UniProt P24941); assay: CDK2/Cyclin E1 full length mobility shift assay; assay type: biochemical
GSK3β (H350L) = GSK3β (H350L) (Homo sapiens (Human), UniProt P49841); settings: read-out: GSK3β Ki
Chain of GSK3β (H350L) (P49841 whole entry, stated change not applied): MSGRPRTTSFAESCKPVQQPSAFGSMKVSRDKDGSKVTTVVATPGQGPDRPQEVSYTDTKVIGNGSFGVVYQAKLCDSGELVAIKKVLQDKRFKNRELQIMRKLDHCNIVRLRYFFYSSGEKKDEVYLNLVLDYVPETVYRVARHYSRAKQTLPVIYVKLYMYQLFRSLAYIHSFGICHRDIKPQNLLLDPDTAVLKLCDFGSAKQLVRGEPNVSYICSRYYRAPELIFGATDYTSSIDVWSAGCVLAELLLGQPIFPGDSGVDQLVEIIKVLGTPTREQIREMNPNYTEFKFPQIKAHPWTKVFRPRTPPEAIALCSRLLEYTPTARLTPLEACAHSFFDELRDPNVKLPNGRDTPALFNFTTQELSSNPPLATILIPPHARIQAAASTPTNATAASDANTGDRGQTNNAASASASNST
Description: The assay was initiated with the addition of ATP, following 15 minutes pre-incubation of enzyme and inhibitor at room temperature in the reaction mixture. The reaction was stopped after 30 minutes at room temperature by the addition of 50 μL of 80 mM EDTA.

| Ki [1] [nM] | Ki (GSK3β (H350L)) [nM] | Compound |
| --- | --- | --- |
| 1.02 | 107 | CC[C@H](C)NC(=O)O[C@@H]1CC[C@H](c2cc(NC(=O)Cc3cncn3C)n[nH]2)C1 [Example 329, (1R,3S)-3-(3-{[(1-methyl-1H-imidazol-5-yl)acetyl]amino}-1H-pyrazol-5-yl)cyclopentyl (2S)-butan-2-ylcarbamate] |
| 0.25 | 32.2 | Cc1cnc(CC(=O)Nc2cc([C@H]3CC[C@@H](OC(=O)NC(C)(C)CC(F)(F)F)C3)[nH]n2)o1 [Example 95] |
| 0.24 | 64.5 | CC[C@H](C)NC(=O)O[C@@H]1CC[C@H](c2cc(NC(=O)Cc3ccccc3S(=O)(=O)CC)n[nH]2)C1 [Example 40] |
| 0.28 | 4.05 | COc1ccc(CC(=O)Nc2cc([C@H]3CC[C@@H](OC(=O)N4C[C@H](O)[C@H]4C)C3)[nH]n2)cn1 [Example 616, (1R,3S)-3-(3-{[(6-methoxypyridin-3-yl)acetyl]amino}-1H-pyrazol-5-yl)cyclopentyl (2R,3S)-3-hydroxy-2-methylazetidine-1-carboxylate] |
| 0.21 | 8.48 | Cc1ncc(CC(=O)Nc2cc([C@H]3CC[C@@H](OC(=O)N4CCC[C@@H]4C)C3)[nH]n2)s1 [Example 139] |
| 0.83 | 14.1 | C[C@]1(O)CC[C@H](NC(=O)O[C@@H]2CC[C@H](c3cc(NC(=O)Cc4cc(F)cc(F)c4)n[nH]3)C2)CC1 [Example 573, (1R,3S)-3-(3-{[(3,5-difluorophenyl)acetyl]amino}-1H-pyrazol-5-yl)cyclopentyl (trans-4-hydroxy-4-methylcyclohexyl)carbamate] |
| 0.39 | 9.9 | COc1cc(CC(=O)Nc2cc([C@H]3CC[C@@H](OC(=O)NCCC(F)(F)F)C3)[nH]n2)ccn1 [Example 102] |
| 0.42 | 5.75 | COc1cc(CC(=O)Nc2cc([C@H]3CC[C@@H](OC(=O)N4C[C@@H](OC)[C@@H]4C)C3)[nH]n2)ccn1 [Example 619, (1R,3S)-3-(3-{[(2-methoxypyridin-4-yl)acetyl]amino}-1H-pyrazol-5-yl)cyclopentyl (2S,3R)-3-methoxy-2-methylazetidine-1-carboxylate] |
| 0.21 | 47.8 | CC[C@H](C)NC(=O)O[C@@H]1CC[C@H](c2cc(NC(=O)Cc3ccc(OC)cc3S(C)(=O)=O)n[nH]2)C1 [Example 44] |
| 0.53 | 19.2 | CCN(C)C(=O)O[C@@H]1CC[C@H](c2cc(NC(=O)Cc3cc(F)cc(F)c3)n[nH]2)C1 [Example 245, (1R,3S)-3-(3-{[(3,5-difluorophenyl)acetyl]amino}-1H-pyrazol-5-yl)cyclopentyl ethyl(methyl)carbamate] |
| 1.73 | 18.2 | CCCNC(=O)O[C@H]1CC[C@@H](c2cc(NC(=O)Cc3ccccn3)n[nH]2)C1 [Example 171, (1S,3R)-3-{3-[(pyridin-2-ylacetyl)amino]-1H-pyrazol-5-yl}cyclopentyl propylcarbamate] |
| 0.68 | 39.2 | COc1cnc(CC(=O)Nc2cc([C@H]3CC[C@@H](OC(=O)NC(C)(C)C)C3)[nH]n2)cn1 [Example 109] |
| 0.45 | 4.97 | COc1cc(CC(=O)Nc2cc([C@H]3CC[C@@H](OC(=O)N4C[C@@](C)(O)[C@@H]4C)C3)[nH]n2)ccn1 [Example 625, (1R,3S)-3-(3-{[(2-methoxypyridin-4-yl)acetyl]amino}-1H-pyrazol-5-yl)cyclopentyl (2S,3R)-3-hydroxy-2,3-dimethylazetidine-1-carboxylate] |
| 0.21 | 9.86 | COc1cc(CC(=O)Nc2cc([C@H]3CC[C@@H](OC(=O)N(C)C(C)C)C3)[nH]n2)ccn1 [Example 58] |
| 0.33 | 92.5 | CC(C)NC(=O)O[C@@H]1CC[C@H](c2cc(NC(=O)Cc3cnn(C)c3)n[nH]2)C1 [Example 60] |
| 0.68 | 72 | Cc1nnc(CC(=O)Nc2cc([C@H]3CC[C@@H](OC(=O)NC(C)(C)C)C3)[nH]n2)o1 [Example 298, (1R,3S)-3-(3-{[(5-methyl-1,3,4-oxadiazol-2-yl)acetyl]amino}-1H-pyrazol-5-yl)cyclopentyl tert-butylcarbamate] |
| 0.24 | 3.57 | O=C(Cc1cc(F)cc(F)c1)Nc1cc([C@@H]2CC[C@H](OC(=O)N[C@H]3CC[C@@H](O)CC3)C2)[nH]n1 [Example 27] |
| 0.18 | 69.7 | CC[C@H](C)NC(=O)O[C@@H]1CC[C@H](c2cc(NC(=O)Cc3ccccc3)n[nH]2)C1 [Example 38] |
| 0.24 | 5.57 | Cn1cc(CC(=O)Nc2cc([C@H]3CC[C@@H](OC(=O)N4CCC4(C)C)C3)[nH]n2)cn1 [Example 148] |
| 0.05 | 34.4 | CC[C@H](C)NC(=O)O[C@@H]1CC[C@H](c2cc(NC(=O)c3ccnn3C)n[nH]2)C1 [Example 42] |
| 0.35 | 3.29 | COc1ccc(CC(=O)Nc2cc([C@@H]3CC[C@H](OC(=O)N[C@H]4CC[C@@](C)(O)CC4)C3)[nH]n2)cn1 [Example 570, (1S,3R)-3-(3-{[(6-methoxypyridin-3-yl)acetyl]amino}-1H-pyrazol-5-yl)cyclopentyl (cis-4-hydroxy-4-methylcyclohexyl)carbamate] |
| 1.04 | 13.4 | CCN(C)C(=O)O[C@H]1CC[C@@H](c2cc(NC(=O)Cc3ccnc(OC)c3)n[nH]2)C1 [Example 241, (1S,3R)-3-(3-{[(2-methoxypyridin-4-yl)acetyl]amino}-1H-pyrazol-5-yl)cyclopentyl ethyl(methyl)carbamate] |
| 0.07 | 3.47 | COc1cc(CC(=O)Nc2cc([C@H]3CC[C@@H](OC(=O)N4CCC4(C)C)C3)[nH]n2)ccn1 [Example 146] |
| 0.63 | 11.5 | Cc1cnc(CC(=O)Nc2cc([C@H]3CC[C@@H](OC(=O)N4[C@@H](C)C[C@@H]4C)C3)[nH]n2)o1 [Example 606, (1R,3S)-3-(3-{[(5-methyl-1,3-oxazol-2-yl)acetyl]amino}-1H-pyrazol-5-yl)cyclopentyl (2S,4S)-2,4-dimethylazetidine-1-carboxylate] |
| 0.13 | 8.86 | Cc1ncc(CC(=O)Nc2cc([C@H]3CC[C@@H](OC(=O)NC4(C)CCCC4)C3)[nH]n2)s1 [Example 116] |
| 0.81 | 9.7 | CCN(C)C(=O)O[C@@H]1CC[C@H](c2cc(NC(=O)Cc3ccnc(OC)c3)n[nH]2)C1 [Example 242, (1R,3S)-3-(3-{[(2-methoxypyridin-4-yl)acetyl]amino}-1H-pyrazol-5-yl)cyclopentyl ethyl(methyl)carbamate] |
| 3 | > 95.3 | CCCNC(=O)O[C@H]1CC[C@@H](c2cc(NC(=O)c3cn(C)nc3C)n[nH]2)C1 [Example 174, (1S,3R)-3-(3-{[(1,3-dimethyl-1H-pyrazol-4-yl)carbonyl]amino}-1H-pyrazol-5-yl)cyclopentyl propylcarbamate] |

| Compound | Ki [1] [nM] | Ki (GSK3β (H350L)) [nM] |
| --- | --- | --- |
| CC[C@H](C)NC(=O)O[C@@H]1CC[C@H](c2cc(NC(=O)Cc3cnn(C(C)C)c3)n[nH]2)C1 [Example 349, (1R,3S)-3-[3-({[1-(propan-2-yl)-1H-pyrazol-4-yl]acetyl}amino)-1H-pyrazol-5-yl]cyclopentyl (2S)-butan-2-ylcarbamate] | 0.4 | 57.3 |
| CCCCNC(=O)O[C@@H]1CC[C@H](c2cc(NC(=O)Cc3ccno3)n[nH]2)C1 [Example 259, (1R,3S)-3-{3-[(1,2-oxazol-5-ylacetyl)amino]-1H-pyrazol-5-yl}cyclopentyl butylcarbamate] | 0.68 | 17.4 |
| COc1ccc(CC(=O)Nc2cc([C@H]3CC[C@@H](OC(=O)NCC(F)F)C3)[nH]n2)cn1 [Example 252, (1R,3S)-3-(3-{[(6-methoxypyridin-3-yl)acetyl]amino}-1H-pyrazol-5-yl)cyclopentyl (2,2-difluoroethyl)carbamate] | 1.39 | 10.6 |
| CCc1nn2cc(CC(=O)Nc3cc([C@H]4CC[C@@H](OC(=O)N[C@@H](C)CC)C4)[nH]n3)nc2s1 [Example 367, (1R,3S)-3-(3-{[(2-ethylimidazo[2,1-b][1,3,4]thiadiazol-6-yl)acetyl]amino}-1H-pyrazol-5-yl)cyclopentyl (2S)-butan-2-ylcarbamate] | 0.27 | 23.5 |
| CCCNC(=O)O[C@@H]1CC[C@H](c2cc(NC(=O)Cc3cc(C)ccc3S(C)(=O)=O)n[nH]2)C1 [Example 206, (1R,3S)-3-[3-({[5-methyl-2-(methylsulfonyl)phenyl]acetyl}amino)-1H-pyrazol-5-yl]cyclopentyl propylcarbamate] | 1.22 | > 95.3 |
| CC[C@@H](C)NC(=O)O[C@H]1CC[C@@H](c2cc(NC(=O)Cc3ccno3)n[nH]2)C1 [Example 29] | 0.16 | 19.7 |
| CC[C@H](C)NC(=O)O[C@@H]1CC[C@H](c2cc(NC(=O)Cc3ccc(OC)nc3)n[nH]2)C1 [Example 346, (1R,3S)-3-(3-{[(6-methoxypyridin-3-yl)acetyl]amino}-1H-pyrazol-5-yl)cyclopentyl (2S)-butan-2-ylcarbamate] | 0.26 | 10.7 |
| COc1ccc(CC(=O)Nc2cc([C@@H]3CC[C@H](OC(=O)N[C@H]4CC[C@@H](O)CC4)C3)[nH]n2)nc1 [Example 554, (1S,3R)-3-(3-{[(5-methoxypyridin-2-yl)acetyl]amino}-1H-pyrazol-5-yl)cyclopentyl (cis-4-hydroxycyclohexyl)carbamate] | 1.76 | 5.11 |
| CCCNC(=O)O[C@@H]1CC[C@H](c2cc(NC(=O)Cc3ccccc3S(=O)(=O)CC)n[nH]2)C1 [Example 205, (1R,3S)-3-[3-({[2-(ethylsulfonyl)phenyl]-acetyl}amino)-1H-pyrazol-5-yl]cyclopentyl propylcarbamate] | 0.76 | 97.7 |
| CCNC(=O)O[C@@H]1CC[C@H](c2cc(NC(=O)Cc3ccc4c(cnn4C)c3)n[nH]2)C1 [Example 3, (1R,3S)-3-(3-{[(1-methyl-1H-indazol-5-yl)acetyl]amino}-1H-pyrazol-5-yl)cyclopentyl ethylcarbamate] | 0.34 | 10 |
| Cc1coc(CC(=O)Nc2cc([C@H]3CC[C@@H](OC(=O)N[C@@H](C)CC(F)(F)F)C3)[nH]n2)n1 [Example 93] | 0.22 | 7.64 |
